Assay results from PMC7170299, “Design, synthesis, molecular modelling and biological evaluation of novel 3-(2-naphthyl)-1-phenyl-1H-pyrazole derivatives as potent antioxidants and 15-Lipoxygenase inhibitors” (Journal of Enzyme Inhibition and Medicinal Chemistry, 2020).

Columns and labels:
[1] = DPPH radical scavenging assay; details: mean ± SEM of three experiments; 30 min, 517 nm
Method: The DPPH scavenging activity of all synthesized compounds was measured as previously described by Nahar et al.[48] with some modifications. Briefly, 100 µL of different concentrations of the tested compounds (12.5, 25, 50, 100, and 200 µg/mL) were pipetted into a 96-well plate. Then, 100 µL of 100-µM DPPH methanolic solution were added to each well and the plate was incubated protected from light at room temperature for 30 min. The absorbance of the solution was measured at λ517 nm.[49] Ascorbic acid was used as the positive control while DMSO was the negative control. The percentage of DPPH scavenging activity was calculated according to the following equation: % of DPPH scavenging=[(Acontrol–Asample)/Acontrol] ×100, where Acontrol is the absorbance of the control reaction (with all reagents except the test compound), and Asample is the absorbance of the test sample. […] All tests were performed in triplicates.

[2] = Superoxide scavenging assay (pyrogallol autoxidation); details: for Superoxide IC50: mean ± SEM of three experiments, pyrogallol autoxidation, 325 nm; for Superoxide scavenging potency relative to ascorbic acid: folds of ascorbic acid
Method: The improved pyrogallol autoxidation method was used to determine O2^−. RSA of all synthesized compounds as previously described. Briefly, 50 µL of test compounds (12.5, 25, 50,100, and 200 µg/mL) was added to 2900 µl of […] Tris HCl buffer (0.05 M, pH 7.4) containing 1-mM Na2EDTA. Next, 50 µL of 60-mM pyrogallol in1mM HCl had been thoroughly mixed with the mixture. The absorbance of the reaction mixture was measured at A325 nm every 30 s for 5 min. O2^− RSA was expressed by the oxidation degree of a test group in comparison to that of the control. The absorbance at 325 nm was measured against the Tris-HCl buffer every 30 s for 5 min. The percentage of scavenging effect was calculated using the following equation: O2^− radical scavenging %=[(ΔA325, control/T)−(ΔA325nm, sample/T)/ΔA325nm, control/T]×100 where ΔA325 nm, control is the increase in A325 nm of the reaction mixture without the sample and ΔA325 nm, sample is that for the mixture with the sample; T=5 min. The experiments were performed in triplicate.

[3] = system: Catalase (CAT) activity in liver; assay: In vivo catalase (CAT) activity in liver homogenate; design: species or system male Wistar albino rats; details: rat liver, 100 mg/kg orally for 3 days; for CAT: mean ± SEM, n = 6
Method: (§1) The complete progress of the experiment was conducted using male Wistar albino rats (200–250 g), delivered by the Institutional Breeding House, Egypt, reared and maintained in the animal house of the institution. The animals had free access to food and water ad libitum and maintained in a controlled environment under standard conditions of temperature and humidity with an alternating 12 h light and dark cycle for about a week for acclimatization. The protocol of the study was approved by the Animal Ethics Committee of the Faculty of Pharmacy, Helwan University (ethical code number: 05A2019; date: October 2019). The study was conducted in accordance with the EC, directive 86/609/EEC for animal experiments.
(§2) Rats are weighed at the beginning and at the end of experiment. Fifty-four male albino rats (n=6) were divided into nine different groups. Group I served as a control group and treated with the same volume vehicle only. Group II treated with 100 mg/kg of Ascorbic acid as standard antioxidant drug. Groups (III–IX) orally administered 100 mg/kg of compounds 3a, 4e, 5b, 5c, 6a, 6c, 6e, respectively, for 3 days. The animals were sacrificed by cervical dislocation 24 h after the last dose. Sacrificing is carried out at the same time of the day, to avoid the circadian variation in the level of tissue GSH[53]. Each liver was excised, weighed, rinsed in ice-cold normal saline and frozen for not more than 72 h await analysis of endogenous antioxidant status (GSH levels and CAT activity) and lipid peroxide concentrations. For performing biochemical assays, a 10% liver homogenate in 10 mM phosphate buffer was prepared using tissue homogeniser (Glas-Col®, Cat no.099C K6424, TERRE HAUTE, USA).
Catalase activity in 10% liver homogenates was determined spectrophotometrically according to Sinha AK[54]. The decrease in absorbance at 240 nm due to H2O2 decomposition was measured and the results were expressed in U/mg tissue.

[4] = system: glutathione (GSH) in liver; assay: In vivo reduced glutathione (GSH) level in liver homogenate; design: species or system male Wistar albino rats; details: rat liver, 100 mg/kg orally for 3 days; for GSH: mean ± SEM, n = 6
Method: as §1, §2
Levels of glutathione (GSH) in liver homogenates were assayed by the deproteinization of tissue homogenate. Then […] supernatant was mixed with di-potassium hydrogen phosphate buffer (pH 8) and 0.4% 5,5′-dithiobis-2-nitrobenzoic acid (Ellman’s reagent). The yellow-coloured substance formed was measured at 412 nm. The results were expressed as GSH mg/g tissue.

| SMILES | DPPH IC50 [1] [µg/mL] | melting point [°C] | Superoxide IC50 [2] [µg/mL] | CAT [3] [U/mg tissue] | GSH [4] [mg/g tissue] | Superoxide scavenging potency relative to ascorbic acid [2] [folds] | Increase of CAT enzyme level compared to control group [3] | Increase in GSH compared to control group [4] |
| --- | --- | --- | --- | --- | --- | --- | --- | --- |
| c1ccc(C2=NNC(c3cn(-c4ccccc4)nc3-c3ccc4ccccc4c3)C2)cc1 (stereo not shown) [Compound 3a, 3′-Naphthalen-2-yl-5,1′-diphenyl-3,4-dihydro-2H,1’H-[3,4′]bipyrazole] | 13.99 ± 0.78 | 172 to 173 | 50.42 ± 1.45 | 36.21 ± 3.49 | 7.00 ± 0.27 | 2.5 |  |  |
| COc1ccc(C2=NOC(c3cn(-c4ccccc4)nc3-c3ccc4ccccc4c3)C2)cc1 (stereo not shown) [Compound 5b, 3-(4-Methoxyphenyl)-5-(3-naphthalen-2-yl-1-phenyl-1H-pyrazol-4-yl)-4,5-dihydro isoxazole] | 46.62 ± 1.63 | 197 to 198 | 101.8 ± 1.39 | 48.19 ± 1.24 | 10.71 ± 0.86 |  | about 101% | about 52% |
| Clc1ccc(C2=NN(c3ccccc3)C(c3cn(-c4ccccc4)nc3-c3ccc4ccccc4c3)C2)cc1Cl (stereo not shown) [Compound 4e, 5-(3,4-Dichlorophenyl)-3′-naphthalen-2-yl-2,1′-diphenyl-3,4-dihydro-2H,1’H-[3,4′]-bipyrazole] | 19.56 ± 1.06 | 172 to 173 | 130.19 ± 1.1 | 43.48 ± 4.51 | 7.05 ± 0.56 |  |  |  |
| Cc1ccc(C2=NOC(c3cn(-c4ccccc4)nc3-c3ccc4ccccc4c3)C2)cc1 (stereo not shown) [Compound 5c, 5-(3-Naphthalen-2-yl-1-phenyl-1H-pyrazol-4-yl)-3-p-tolyl-4,5-dihydroisoxazole] | 47.27 ± 1.13 | 181 to 182 | 44.54 ± 1.44 | 45.42 ± 4.30 | 10.92 ± 0.96 | 2.8 | ~89% | ~55% |

Further lines, with some results ahead:

| DPPH IC50 [1] [µg/mL] | melting point [°C] | SMILES | Superoxide IC50 [2] [µg/mL] | CAT [3] [U/mg tissue] | GSH [4] [mg/g tissue] | Superoxide scavenging potency relative to ascorbic acid [2] [folds] | Increase of CAT enzyme level compared to control group [3] | Increase in GSH compared to control group [4] |
| --- | --- | --- | --- | --- | --- | --- | --- | --- |
| 20.47 ± 1.43 | 198 to 199 | NC(=S)N1N=C(c2ccccc2)CC1c1cn(-c2ccccc2)nc1-c1ccc2ccccc2c1 (stereo not shown) [Compound 6a, 3′-Naphthalen-2-yl-5,1′-diphenyl-3,4-dihydro-1’H-[3,4′]bipyrazolyl-2-carbothioic acid amide] | 127.25 ± 1.47 | 27.97 ± 3.46 | 7.07 ± 0.35 |  |  |  |
| 18.98 ± 1.73 | 184 to 185 | Cc1ccc(C2=NN(C(N)=S)C(c3cn(-c4ccccc4)nc3-c3ccc4ccccc4c3)C2)cc1 (stereo not shown) [Compound 6c, 3′-Naphthalen-2-yl-1′-phenyl-5-p-tolyl-3,4-dihydro-1’H-[3,4′]bipyrazolyl-2-carbo thioic acid amide] | 140.17 ± 1.52 | 44.38 ± 2.81 | 9.01 ± 0.72 |  |  |  |
| 9.66 ± 0.34 | 180 to 181 | NC(=S)N1N=C(c2ccc(Cl)c(Cl)c2)CC1c1cn(-c2ccccc2)nc1-c1ccc2ccccc2c1 (stereo not shown) [Compound 6e] | 87.31 ± 1.58 | 57.84 ± 3.50 | 10.65 ± 0.97 |  | ~141% | ~51% |
